Experimental data taken from PubChem BioAssay (NCI).
Values joined by “and” are separate entries in the source; they are usually repeats but may differ in a detail not shown here. Equal values may be shown once.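 Cultured in 96-well plates, cells were exposed to test compound for 48 hours across five concentrations. GI50 is the concentration that inhibits growth by half. TGI: total growth inhibition.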

Legend:
Experiment in all cases: NCI-60 cell line screen, 48 h
A549 NSCLC = test system: A549 NSCLC
ACHN renal = test system: ACHN renal
M14 melanoma = test system: M14 melanoma
MALME-3M melanoma = test system: MALME-3M melanoma
MCF7 breast = test system: MCF7 breast
MOLT-4 leukemia = test system: MOLT-4 leukemia
NCI-H23 lung = test system: NCI-H23 lung
PC-3 prostate = test system: PC-3 prostate
SN12C renal = test system: SN12C renal
SNB-19 CNS = test system: SNB-19 CNS

Compound	GI50 (A549 NSCLC)	TGI (A549 NSCLC)	GI50 (ACHN renal)	TGI (ACHN renal)	GI50 (M14 melanoma)	TGI (M14 melanoma)	GI50 (MALME-3M melanoma)	TGI (MALME-3M melanoma)	GI50 (MCF7 breast)	TGI (MCF7 breast)	GI50 (MOLT-4 leukemia)	TGI (MOLT-4 leukemia)	GI50 (NCI-H23 lung)	TGI (NCI-H23 lung)	GI50 (PC-3 prostate)	TGI (PC-3 prostate)	GI50 (SN12C renal)	TGI (SN12C renal)	GI50 (SNB-19 CNS)	TGI (SNB-19 CNS)
CC(C)(C#N)c1cc(F)cc(C(=O)Nc2cc(Nc3ncccc3-c3ncnc4nc[nH]c34)ccc2F)c1	5.49 µM	> 10 µM	1.85 µM	> 10 µM	0.0682 µM	1.02 µM	0.0236 µM	0.074 µM	8.73 µM	> 10 µM	4.27 µM	> 10 µM	0.501 µM	> 10 µM	7.67 µM	> 10 µM	3.11 µM	> 10 µM	4.44 µM	> 10 µM
CC(=O)O[C@H](C[C@H](C(C)C)N(C)C(=O)[C@@H](NC(=O)[C@H]1CCCCN1C)C(C)C)c1nc(C(=O)N[C@@H](Cc2ccccc2)C[C@H](C)C(=O)O)c(C(C)C)s1	0.00495 µM	> 33.3 µM	0.00458 µM	> 18.5 µM	< 0.00333 µM	0.161 µM	< 0.00333 µM	> 33.3 µM	< 0.00333 µM	> 33.3 µM	< 0.00333 µM	> 33.3 µM	< 0.00333 µM	> 33.3 µM	< 0.00333 µM	> 33.3 µM	< 0.00333 µM	> 33.3 µM	< 0.00333 µM	> 33.3 µM
O=C(Nc1ccc(Oc2ccc3nc(NC(=O)c4ccccc4)[nH]c3c2)cc1)Nc1cc(C(F)(F)F)ccc1F	0.846 µM	13.3 µM	1.84 µM	> 25 µM	0.997 µM	9.29 µM	1.3 µM	11.9 µM	0.758 µM	5.14 µM	0.68 µM	3.83 µM	0.93 µM	13 µM	0.624 µM	2.76 µM	1.75 µM	> 25 µM	5.56 µM	> 25 µM
Cc1cccc(C(=O)/C=C/SC(=NC#N)SCc2ccccc2)c1	23.7 µM	67.7 µM	25.6 µM	67 µM	24.8 µM	59.1 µM	12.3 µM	32 µM	34.3 µM	> 100 µM	6.72 µM	> 100 µM	20.9 µM	47 µM	16.4 µM	50.8 µM	20.4 µM	41.3 µM	36.1 µM	> 100 µM
CN(C)CCNC(=O)Cn1cc([N+](=O)[O-])c(=O)c2ccccc21	–	> 100 µM	–	> 100 µM	–	> 100 µM	–	> 100 µM	–	> 100 µM	–	> 100 µM	–	> 100 µM	–	> 100 µM	–	> 100 µM	–	> 100 µM
CN1CCN(Cc2ccc(NC(=O)c3cncc(C#Cc4cncc5ncccc45)c3)cc2C(F)(F)F)CC1	3.86 µM	15.5 µM	1.36 µM	10.5 µM	0.961 µM	5.09 µM	0.284 µM	1.05 µM	3.28 µM	15.7 µM	1.18 µM	16 µM	1.54 µM	12.2 µM	5.5 µM	24 µM	2.59 µM	11.8 µM	10.5 µM	22.3 µM
Cc1ccc(Nc2n[nH]c(=S)s2)cc1	–	> 100 µM	–	> 100 µM	–	> 100 µM	–	> 100 µM	–	> 100 µM	–	> 100 µM	–	> 100 µM	–	> 100 µM	–	> 100 µM	–	> 100 µM
Cc1ccc(C)c(NC(=O)NCc2ccc(Cl)cc2)c1	–	> 100 µM	–	> 90.7 µM	–	> 100 µM	–	> 87.9 µM	–	> 100 µM	–	> 36.2 µM	–	> 100 µM	–	> 100 µM	–	> 100 µM	–	> 58.5 µM
O=C1c2ccccc2C(=Cc2ccccc2)c2ccccc21	3.22 µM	9.97 µM	3.89 µM	13.4 µM	2.21 µM	7.86 µM	6.2 µM	23.4 µM	1.44 µM	12 µM	4.74 µM	> 100 µM	2.59 µM	14.1 µM	2.26 µM	15.8 µM	2.97 µM	14.1 µM	3.61 µM	16.9 µM
CCN1C(=O)NC(=O)C(C)(N2C(=O)c3c(F)c(F)c(F)c(F)c3C2=O)C1=O (centres undefined)	3.69 µM	18.3 µM	2.03 µM	3.94 µM	3.16 µM	10.7 µM	2.06 µM	5.48 µM	2.77 µM	13.5 µM	2.44 µM	10.1 µM	3.92 µM	17.7 µM	3.09 µM	10.5 µM	3.99 µM	14.6 µM	9.49 µM	24.9 µM
Cc1cnc(/C=N\NC(N)=S)c2cccc(N)c12	4.85 µM	> 100 µM	1.51 µM	> 30.9 µM	1.83 µM and 0.384 µM	4.41 µM and 1.75 µM	3.53 µM	> 100 µM	1.5 µM	> 100 µM	1.5 µM	> 100 µM	2.14 µM	> 100 µM	> 22.7 µM	> 100 µM	1.51 µM	> 26.5 µM and 4.35 µM	3.42 µM	> 100 µM
O=P(NC12CC3CC(CC(C3)C1)C2)(N1CC1)N1CC1	–	> 100 µM	–	> 100 µM	–	> 100 µM	–	> 100 µM	–	> 100 µM	–	> 43.2 µM	–	> 63.8 µM	–	> 100 µM	–	> 100 µM	–	> 100 µM
COc1ccc(C2=NN(C(=O)c3cc(OC)c(OC)c(OC)c3)C(c3ccc(Cl)cc3)C2)cc1OC (centres undefined)	4.03 µM	> 100 µM	2.32 µM	41.3 µM	4.66 µM	> 100 µM	3.95 µM	98.9 µM	0.398 µM	14.7 µM	2.73 µM	> 100 µM	5.78 µM	> 90.1 µM	1.07 µM	> 100 µM	4.89 µM	56 µM	4.15 µM	44 µM
O=C([O][Hg][CH2]C1COC([CH2][Hg][O]C(=O)c2ccccc2)CO1)c1ccccc1 (centres undefined)	19.3 µM and 16.4 µM	37.6 µM and 33.8 µM	8.92 µM and 1.67 µM	20.7 µM and 3.08 µM	8.68 µM and 2.52 µM	19.8 µM and 4.89 µM	2.06 µM and 1.7 µM	3.81 µM and 3.23 µM	3.69 µM and 1.16 µM	19.8 µM and 2.87 µM	2.18 µM and 1.41 µM	6.5 µM and 6.83 µM	9.82 µM	23.3 µM	15.3 µM	–	12.2 µM and 1.54 µM	24.6 µM and 3.02 µM	19.6 µM and 6.18 µM	43.2 µM and 21.9 µM
